# Measurements from patent publication US20190262343A1, “WOUND HEALING USING BRAF INHIBITORS” (THE REGENTS OF THE UNIVERSITY OF CALIFORNIA, priority 2016, published 2019).
# Experiments:
# [1] = tested on: pERK and Ki67 in BRAF^V600E mutant human melanoma cell line M249; test: pERK and Ki67 by western blot and phosphoflow cytometry, M249; format: cell-based; details: 1.5 μM vemurafenib vs vehicle
# Description: HEKa and M249 cells treated with a concentration of 1.5 μM of vemurafenib or vehicle control were fixed with formaldehyde to a final concentration of 1.6%, and permeabilized using methanol (90%). Then, they were washed in staining buffer (sterile PBS, 0.5% BSA, 0.01% sodium azide, NaN3), and stained with Alexa Flour 647 mouse anti-ERK1/2 (pT202/pY204) antibody and PE mouse anti-human Ki67 antibody (BD Pharmingen, San Jose, Calif.) as previously described by Comin-Anduix, et al., PLoS One 5:e12711 (2010). After incubation, cells were washed again and resuspended in 3 ml of staining buffer. A total of 30,000 cellular events were acquired for analysis. Data was analyzed using FlowJo (Tree Star Inc., Ashland, Oreg.).
# M249 and HEKa cells were treated in duplicate with a concentration of 1.5 μM of vemurafenib or vehicle control.
# [2] = tested on: CD68+, IL-6+, COX-2+, PECAM-1+ cells; test: Immunohistochemistry of incisional wounds (CD68, IL-6, COX-2, PECAM-1); format: in vivo, mice
# Excerpt: Dorsal skin wounds from CH3 mice treated with vemurafenib suspension or DMSO in saline control suspension were excised at day 2, 6 and 14. They were fixed in 10% neutral buffered formalin and embedded in paraffin and stained with hematoxylin and eosin (H&E) using standard methods. Balb/c mice were sacrificed at day 2, 6 and 14 with isoflurane overdose. Two 8-mm round pieces of tissue were collected from each Balbc/c mouse containing the whole wound area and the surrounding tissue and skin, cut precisely in half at the midline of the wound and fixed in 1% paraformaldehyde (PFA) for 16-18 hours at 4° C., dehydrated in 70% EtOH, and then paraffin embedded. Sections were cut at 4 μm, deparaffinized with xylene and descendant ethanol, and then incubated in 3% H2O2 for 10 minutes. After a wash in distilled water, the slides were incubated for 25 minutes in citrate buffer pH6 (Invitrogen) at 95° C. using a vegetable steamer. […] The imaging and quantification of the cell-based immunohistochemistry, was performed with the HALO Next Generation Imaging analysis software (Indica Labs; Corrales, N. Mex.). […] The number of pERK+, Ki67+ and PECAM-1+ cells was automatically counted with the HALO software. Three 20× fields of view from each side of the wound were automatically counted for pERK and Ki67 stains. PECAM-1+ and CD68+ cells were automatically counted on each side of the wound edges where the granulation tissue starts (1 mm length each side) on the excisional wound splinting model, and in the entire wound area on the incisional wound model.
# To elaborate on the activated pathways associated with the increased presence of wound healing cell subsets at this time point, the genes up-expressed in the vemurafenib-treated wounds were analyzed for enriched GO biological processes 2 fold increase) using ClueGo (Bindea, G. et al., Bioinformatics 25:1091-93 (2009)). […] To confirm these findings, the levels of COX-2+ and IL-6+ cells were quantified by immunohistochemistry. […]
# 2.5 cm dorsal skin wound = test: Incisional dorsal wound model, wound tensile strength (WTS); format: in vivo, C3Hf/Kam (H2-k) female mice; details: for improvement in WTS compared to vehicle-treated controls: topical every other day, seven doses, day 14
# Excerpt: The skin wounds were surgically clipped on day 0 and mice were followed until day 14 (FIGS. 5A-5B). […] On day 14, the mice were euthanized and the skin containing the wound was removed and mounted in 20 mm strips with a horizontal wound sample in each strip.
# [3] = tested on: Human epidermal adult keratinocytes (HEKa); test: Scratch assay of keratinocyte monolayer (cell proliferation and migration, automated microscope); format: cell-based; details: 1.5 μM vemurafenib vs no vemurafenib, evident at 6, 8 and 12 hours
# Description: Human epidermal adult keratinocytes (HEKa) were purchased from Invitrogen (Grand Island, N.Y.; C-005-5C). HEKa cells (25,000/well) were plated on 96-well ImageLock cell migration plates (Essen Bioscience, Ann Arbor, Mich.) and incubated overnight. Then, the cell monolayer was scratched with a 96-pin WoundMaker (Essen Bioscience), and the cells washed with PBS prior to adding cell medium. Cells were maintained in culture with a concentration of 1.5 μM of vemurafenib until complete scratch closure. Cell migration was monitored by a microscope gantry inside a cell incubator, which was connected to a networker external controller hard drive that gathered and processed image data (Incucyte, Essen Bioscience, Ann Arbor, Mich.). This allows an automated and non-invasive method of monitoring live cells in culture. […]
# Human epithelial adult keratinocytes (HEKa) cultured as a monolayer in 96-well plates were subject to a scratch assay, where proliferating keratinocytes should regrow and cover the scratch. Replicate cultures with or without the BRAF inhibitor vemurafenib were placed in an incubator with an automated microscope analyzer and the number of nucleated cells in the original scratch was recorded over time. […]
structure (smiles),measurement,setting,value
CCCS(=O)(=O)Nc1ccc(F)c(C(=O)c2c[nH]c3ncc(-c4ccc(Cl)cc4)cc23)c1F [vemurafenib],pERK in M249,[1],decreased pERK
same,proliferative marker Ki67 in M249,[1],decreased
same,macrophages (CD68+ cells) in wounds by IHC,"[2]; day 6, topical",increase in macrophages
same,increase of PECAM-1+ cells,"[2]; incisional wound model, p=0.02",65%
same,IL-6+ and COX-2+ cells,"[2]; proliferation stage, day 6",higher IL-6+ and COX-2+ cells
same,improvement in WTS compared to vehicle-treated controls,2.5 cm dorsal skin wound; Experiment #1,52%
same,improvement in WTS compared to vehicle-treated controls,2.5 cm dorsal skin wound; Experiment #2,33%
same,improvement in WTS compared to vehicle-treated controls,2.5 cm dorsal skin wound; Experiment #3,42%
same,improvement in WTS vs. vehicle control,"2.5 cm dorsal skin wound; separate assay, Experiment #4, p=0.01",37%
same,covering of the original scratch,[3],statistically significant improvement in the covering of the original scratch
